Source: PubChem BioAssay AID1963420 (Molecular Pharmacology Branch, DTP, NCI, 2024)

Test system: 494315-158-R-J1-PDC complex spheroid growth, percent test/control
Assay: Anticancer human tumor 494315-158-R-J1-PDC patient-derived soft tissue sarcoma cell line growth inhibition [Asc]
Conditions: for IC50: curve of first compound; for viability, T/C: stronger effect = lower value
Method: Multicellular complex tumor spheroid response to apoptosis pathway targeting inhibitors Alrizomadlin, Pelcitoclax, and Dasminapant in combination with a variety of drugs and investigational agents in selected tumor cell lines
The MDM2 inhibitor alrizomadlin, the Bcl-2/Bcl-xL inhibitor pelcitoclax, and the IAPs inhibitor dasminapant were evaluated both individually and in combination with standard of care and investigational anticancer small molecules within a complex spheroid model of solid tumors. . Complex spheroids include a stromal component modeled by human endothelial cells (HUVEC) and fibroblasts modeled by human mesenchymal stem cells (MSCs). The concentration ranges selected for each drug and investigational agent were based upon clinically achievable concentrations if the clinical Cmax of the agent was known.
Compounds. The drugs and investigational agents: alrizomadlin (APG-115; NSC831270), pelcitoclax (APG-1252; NSC835773), dasminapant (APG-1387;NSC834197), TAK-243 (NSC785004), copanlisib (NSC809693), olaparib (NSC753686), talazoparib (NSC767125), cobimetinib (NSC 768068), eltanexor (KPT-8602, NSC 794443), abemaciclib (NSC 768073), sotorasib (NSC818433), adagrasib (NSC 831453), MRTX-1133 (NSC 836407), Iadademestat (ORY1001, NSC 806812), and RMC-4630 (NSC839698), were obtained from the NCI Developmental Therapeutics Program Chemical Repository. The FDA-approved anticancer drug set is available from the Developmental Therapeutics Program at https://dtp.cancer.gov/organization/dscb/obtaining/available plates.htm. […] The stock solutions were prepared in dimethyl sulfoxide (DMSO, Sigma-Aldrich, St. Louis, MO, cat. D2650) at 800-fold the tested concentration and stored at -70 degrees C prior to their use. All drugs and investigational agents were tested over a range starting from a high concentration at or near the clinical Cmax and decreasing in half-log increments. If the clinical Cmax for an agent had not been determined, the highest concentration tested was 10 microM.
The patient-derived cancer (PDC) cell lines include five colon adenocarcinomas: 186277-243-T-J2-PDC, 616215-338-R-J1-PDC, 439559-082-T-J2-PDC, 463943-066-T-J2-PDC, and 519858-162-T-J1-PDC; three pancreatic carcinomas: 323965-272-R-J2-PDC, 521955-158-R6-J3-PDC, and 521955-158-R2-J5-PDC; two uterine sarcomas: 327498-152-R-J2-PDC and 993429-296-R-J1-PDC; two rhabdomyosarcomas: 755483-174-R-J1-PDC and 772245-204-R-J1-PDC; two soft tissue sarcomas: 126254-015-R-J1-PDC and 494315-158-R-J1-PDC; two malignant fibrous histiocytomas: 317291-083-R-J1-PDC and 596521-263-R-J1-PDC; two breast carcinomas: 171881-019-R-J1-PDC and 885512-296-R-J2-PDC; and one ovarian carcinoma: 6556581-035-R-J-PDC were obtained from the NCI PDMR, (https://pdmr.cancer.gov). The established cell lines HSSY-2 synovial sarcoma (RRID:CVCL 8719), SYO-1 synovial sarcoma (RRID:CVCL_7146), MPNST malignant peripheral neural sheath tumor were obtained from the Sloan Kettering Institute. The following established cell lines were purchased from the American Type Culture Collection (ATCC, Manassas, VA), Sor the received from the NCI repository:, PANC-1 pancreatic carcinoma (CRL-1469, RRID:CVCL_0480), OVCAR-5 ovarian carcinoma (RRID:CVCL_1628), OVCAR-8 ovarian carcinoma (RRID:CVCL_1629), , MCF-7 breast carcinoma (CRL-12584, RRID:CVCL_0031), MDA-MB-231 breast carcinoma (CRL-12532, RRID:CVCL_0062), NCI-H1876 small cell lung carcinoma (CRL-5902, RRID:CVCL_1503), NCI-H510A small cell lung carcinoma (HTB-184, RRID:CVCL_1565), NCI-H1417 (CRL-5869, RRID:CVCL_1469), and NCI-H196 small cell lung carcinoma (CRL-5823, RRID:CVCL_1509). Dr. Peter Houghton (Greehey Children's Cancer Research Institute, University of Texas Health Science Center, San Antonio, TX) provided Rh-18 rhabdomyosarcoma (RRID:CVCL_1659). Pooled donor human umbilical vein endothelial cells (HUVEC, Lonza, cat. CC-2519) and human mesenchymal stem cells (hMSC, Lonza, cat. PT-2501) were purchased from Lonza (Walkersville, MD).
Cell Culture. […]
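Further: compound exposure lasted seven days after spheroids formed for three days.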

SMILES: Cc1nc(N2CCC3(CC2)COC(C)C3N)c(CO)nc1Sc1ccnc(N)c1Cl (stereo not given) + CCN1C(C(=O)NC23CCC(C(=O)O)(CC2)CC3)C(c2cccc(Cl)c2F)C2(C(=O)Nc3cc(Cl)ccc32)C12CCCCC2
- IC50 (second compound 0.03 µM): > 3000 nM
- IC50 (second compound 0.0949 µM): 1430 nM
- IC50 (second compound 0.3 µM): 915 nM
- IC50 (second compound 0.949 µM): 601 nM
- IC50 (second compound 3 µM): 718 nM
- viability, T/C (second compound 0.03 µM, first compound 0.00949 µM): 102%
- viability, T/C (second compound 0.03 µM, first compound 0.03 µM): 90.3%
- viability, T/C (second compound 0.03 µM, first compound 0.0949 µM): 70.8%
- viability, T/C (second compound 0.03 µM, first compound 0.3 µM): 64.2%
- viability, T/C (second compound 0.03 µM, first compound 0.949 µM): 51.5%
- viability, T/C (second compound 0.03 µM, first compound 3 µM): 58.4%
- viability, T/C (second compound 0.0949 µM, first compound 0.00949 µM): 83.8%
- viability, T/C (second compound 0.0949 µM, first compound 0.03 µM): 83.6%
- viability, T/C (second compound 0.0949 µM, first compound 0.0949 µM): 72%
- viability, T/C (second compound 0.0949 µM, first compound 0.3 µM): 69%
- viability, T/C (second compound 0.0949 µM, first compound 0.949 µM): 59.5%
- viability, T/C (second compound 0.0949 µM, first compound 3 µM): 36.4%
- viability, T/C (second compound 0.3 µM, first compound 0.00949 µM): 79.6%
- viability, T/C (second compound 0.3 µM, first compound 0.03 µM): 89.9%
- viability, T/C (second compound 0.3 µM, first compound 0.0949 µM): 81.7%
- viability, T/C (second compound 0.3 µM, first compound 0.3 µM): 68.3%
- viability, T/C (second compound 0.3 µM, first compound 0.949 µM): 50.4%
- viability, T/C (second compound 0.3 µM, first compound 3 µM): 37.1%
- viability, T/C (second compound 0.949 µM, first compound 0.00949 µM): 89.3%
- viability, T/C (second compound 0.949 µM, first compound 0.03 µM): 87.2%
- viability, T/C (second compound 0.949 µM, first compound 0.0949 µM): 76.9%
- viability, T/C (second compound 0.949 µM, first compound 0.3 µM): 63.4%
- viability, T/C (second compound 0.949 µM, first compound 0.949 µM): 40%
- viability, T/C (second compound 0.949 µM, first compound 3 µM): 37.6%
- viability, T/C (second compound 3 µM, first compound 0.00949 µM): 80.9%
- viability, T/C (second compound 3 µM, first compound 0.03 µM): 86%
- viability, T/C (second compound 3 µM, first compound 0.0949 µM): 78.2%
- viability, T/C (second compound 3 µM, first compound 0.3 µM): 62.2%
- viability, T/C (second compound 3 µM, first compound 0.949 µM): 47.1%
- viability, T/C (second compound 3 µM, first compound 3 µM): 32.5%
